From PubChem BioAssay (NCI)
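Cultured in 96-well plates, cells were exposed to test compound for 48 hours across five concentrations. TGI: concentration producing complete growth inhibition.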

Tests used:
Assay in all cases: NCI-60 cell line screen, 48 h
MOLT-4 leukemia = tested on: MOLT-4 leukemia
CCRF-CEM leukemia = tested on: CCRF-CEM leukemia
SNB-75 CNS = tested on: SNB-75 CNS
MALME-3M melanoma = tested on: MALME-3M melanoma
KM12 colon = tested on: KM12 colon
MDA-MB-231 breast = tested on: MDA-MB-231 breast
MDA-MB-435 = tested on: MDA-MB-435
SF-268 CNS = tested on: SF-268 CNS
HS 578T breast = tested on: HS 578T breast
EKVX NSCLC = tested on: EKVX NSCLC

Compound | TGI (MOLT-4 leukemia) | TGI (CCRF-CEM leukemia) | TGI (SNB-75 CNS) | TGI (MALME-3M melanoma) | TGI (KM12 colon) | TGI (MDA-MB-231 breast) | TGI (MDA-MB-435) | TGI (SF-268 CNS) | TGI (HS 578T breast) | TGI (EKVX NSCLC)
c1ccc(C(c2cccc3c2ccc2ccccc23)C(c2ccccc2)c2cccc3c2ccc2ccccc23)cc1 (stereo not given) | > 100 µM | > 100 µM | > 100 µM | > 100 µM | > 100 µM | > 100 µM | > 100 µM | > 100 µM | > 100 µM | > 100 µM
c1ccc2[nH]c3c(N=NC4=NCCN4)c4ccccc4c-3nc2c1 | > 100 µM | > 100 µM | 16.4 µM | 24.1 µM | 15.8 µM | 32.4 µM | 21.8 µM | > 100 µM | > 100 µM | 33.3 µM
O=C(CNc1nccs1)Nn1cnc2ccc(S(=O)(=O)Nc3nccs3)cc2c1=O | > 100 µM | > 100 µM | > 100 µM | > 100 µM | > 100 µM | > 100 µM | > 100 µM | > 100 µM | > 100 µM | > 100 µM
O=C1C(C(c2ccc([N+](=O)[O-])cc2)N2CCOCC2)=C(O)C(c2ccccc2)N1c1ccccc1 (stereo not given) | > 10 µM | > 10 µM | > 10 µM | > 10 µM | > 10 µM | > 10 µM | > 10 µM | > 10 µM | > 10 µM | > 10 µM
CCCCC(=C=C(C)CO)C1CCCN1C(=O)OC(C)(C)C (stereo not given) | 33.8 µM | 33.2 µM | 53.4 µM | 28.2 µM | 34.8 µM | 34 µM | 35.8 µM | 33.5 µM | 30.4 µM | 44 µM
COc1ccc(C(=O)c2c(-c3ccccc3NC(=O)C(F)(F)F)[nH]c3ccccc23)cc1 | 10.6 µM | 15.2 µM | 7.89 µM | 30.5 µM | 21.8 µM | 21.4 µM | 25.5 µM | 28.7 µM | 46.9 µM | 24.4 µM
CC(C(=O)NCCNC(=O)CCC(=O)N(C)O)C(=O)NCCNC(=O)CCC(=O)N(C)O | > 100 µM | > 100 µM | > 100 µM | > 100 µM | > 100 µM | > 100 µM | > 100 µM | > 100 µM | > 100 µM | > 100 µM
CC(C)(C)c1cc(C(=O)C2Cc3ccccc3C(=O)O2)cc(C(C)(C)C)c1O (stereo not given) | > 100 µM | 34.7 µM | 33.8 µM | 29.6 µM | 32.1 µM | 31.7 µM | 32.6 µM | 40.6 µM | > 100 µM | 25.9 µM
CCCCCCCCCC(O)CC(=O)c1c(O)cccc1O (stereo not given) | 41.6 µM | > 100 µM | 34.9 µM | 32.3 µM | 40.8 µM | 46.5 µM | 68.1 µM | 35.9 µM | 40.8 µM | 45.5 µM
COc1cc(NS(C)(=O)=O)ccc1NCc1cnc2ccc3[nH]cccc3c12 | 22.1 µM | 59.5 µM | 39.3 µM | 43.4 µM | 37.6 µM | 51 µM | 43.8 µM | 55.3 µM | 47.5 µM | 57.7 µM
CCn1c(-c2ccc(OC)cc2)nc2c1C(=O)c1ccccc1C2=O | > 100 µM | > 100 µM | > 100 µM | > 100 µM | > 100 µM | > 100 µM | > 100 µM | > 100 µM | > 100 µM | > 100 µM
COc1ccc(OC)c(NC2=NCCO2)c1 | > 100 µM | > 100 µM | > 100 µM | > 100 µM | > 100 µM | > 100 µM | > 100 µM | > 100 µM | > 100 µM | > 100 µM
O=C(N/N=C\c1cccs1)c1ccncc1 | > 100 µM | > 100 µM | > 100 µM | > 100 µM | > 100 µM | > 100 µM | > 100 µM | > 100 µM | > 100 µM | > 100 µM
COC1=CC(=O)c2c(cc(COP(N)(=O)N(CCCl)CCCl)n2C)C1=O (stereo not given) | 0.382 µM | 8 µM | 4.45 µM | 3.15 µM | 5.02 µM | 8.42 µM | 3.2 µM | 2.34 µM | > 100 µM | 1.62 µM
C=C1C(=O)[C@]23C[C@H]1C[C@@H](O)[C@H]2[C@]1(COC3=O)[C@@H](OC(C)=O)CC[C@@](C)(COC(C)=O)[C@H]1C=O | 18.2 µM | 15.1 µM | > 50 µM | 27 µM | > 50 µM | > 50 µM | > 50 µM | 43.5 µM | > 50 µM | > 50 µM
NC(=S)Nc1ccc2c(c1)oc1ccccc12 | > 100 µM | > 100 µM | > 100 µM | > 100 µM | > 100 µM | > 100 µM | > 100 µM | > 100 µM | > 100 µM | > 100 µM
O=C(/C=C/c1ccc2c(c1)OCO2)NCCc1ccco1 | > 100 µM | > 100 µM | > 100 µM | > 100 µM | > 100 µM | > 100 µM | > 100 µM | > 100 µM | > 100 µM | > 100 µM
COc1cc(OCc2nc3cc(C(F)(F)F)ccc3nc2-c2ccccc2)cc(OC)c1OC | > 100 µM | > 100 µM | > 100 µM | > 100 µM | > 100 µM | > 100 µM | > 100 µM | > 100 µM | > 100 µM | > 100 µM
C[C@@H](NC(=O)[C@@H]1C[C@]1(C)CO)c1cccc2ccccc12 | > 100 µM | > 100 µM | > 100 µM | > 100 µM | > 100 µM | > 100 µM | > 100 µM | > 100 µM | > 100 µM | > 100 µM
COc1ccc(N2CN(C)CSC2=S)cc1 | > 100 µM | 87.2 µM | > 100 µM | > 100 µM | > 100 µM | > 100 µM | > 100 µM | > 100 µM | > 100 µM | > 100 µM
C[C@]12C(=O)C=CCC1=CC[C@@H]1[C@@H]2[C@H]2CC3(O)C(=O)O[C@@]4(C)[C@H]5C[C@@]6(C)[C@@H]7[C@@]2(O)[C@]1(OC[C@H]6C(=O)O5)O[C@]734 (stereo not given in full) | 90.3 µM | > 100 µM | > 100 µM | > 100 µM | > 100 µM | > 100 µM | > 100 µM | > 100 µM | > 100 µM | > 100 µM
O=S(c1ccccc1)C1CC2CC3(CCC21O)OCCO3 (stereo not given) | > 100 µM | > 100 µM | > 100 µM | > 100 µM | > 100 µM | > 100 µM | > 100 µM | > 100 µM | > 100 µM | > 100 µM
O=C(/C=C/c1ccc(OCc2ccccc2)cc1)NCc1ccc(C(=O)NCc2ccccc2)cc1 | > 100 µM | > 100 µM | > 100 µM | > 100 µM | > 100 µM | > 100 µM | > 100 µM | > 100 µM | > 100 µM | > 100 µM
CC(=O)NNc1nc(C)c(C(/C=C/c2ccc([N+](=O)[O-])cc2)=N/NC(N)=O)s1 | > 100 µM | > 100 µM | > 100 µM | > 100 µM | > 100 µM | > 100 µM | > 100 µM | > 100 µM | > 100 µM | > 100 µM
COCCOC(C)C(=O)C(O)S(=O)(=O)O (stereo not given) | > 100 µM | > 100 µM | > 100 µM | > 100 µM | > 100 µM | > 100 µM | > 100 µM | > 100 µM | > 100 µM | > 100 µM
Nc1ncnc2c1ncn2C1OC(CO)C(O)C1NS(=O)(=O)c1ccccc1 (stereo not given) | > 100 µM | > 100 µM | > 100 µM | > 100 µM | > 100 µM | > 100 µM | > 100 µM | > 100 µM | > 100 µM | > 100 µM
